Assay results: article PMC4300529 (Anesthesiology, 2015)

Key:
[1] = tested on: Xenopus tadpoles; assay: Xenopus tadpole anesthetic activity; type: in vivo, Xenopus laevis
[2] = tested on: mice; conditions: previously reported; cited from earlier work
[3] = molecular target: apoferritin (Equus caballus, UniProt P02791); assay: biochemical
[4] = tested on: mice; assay: Loss-of-righting reflex anesthetic potency assay in mice; type: in vivo, mice (C57BL/6J)
[5] = pharmacokinetic profiling; type: in vivo; conditions: data not shown

Chain of apoferritin (P02791 2-175 limits assumed): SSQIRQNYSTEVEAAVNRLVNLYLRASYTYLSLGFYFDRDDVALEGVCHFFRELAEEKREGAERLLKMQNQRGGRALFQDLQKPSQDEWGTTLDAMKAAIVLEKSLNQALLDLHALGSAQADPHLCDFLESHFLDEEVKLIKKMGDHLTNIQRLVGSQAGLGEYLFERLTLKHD

| Structure (SMILES) | toxicity in tadpoles at 100 μM ([1]; 100 μM) | logED50 in mice [2] | IC50 [3] | duration of LoRR ([4]; 20 mg/kg (0.11 mmol/kg)) | anesthetic activity / potency in tadpoles (immobility), in words ([1]; tadpole immobility after 60 minutes exposure, SAR statements to figs 4-6) | pharmacokinetic profile (uptake, distribution, elimination) [5] | mean duration of LoRR ([4]; 100 mg/kg iv) | onset of LoRR ([4]; intravenous, doses roughly twice that of propofol (moles per kilogram)) | LogED50 for LoRR ([4]; iv injection, unit printed only with the propofol value of the same legend) |
| --- | --- | --- | --- | --- | --- | --- | --- | --- | --- |
| CC(C)c1cccc(C(C)C)c1O [propofol, reference compound] | produced death at 100 μM | −1.03 mmol/kg | 23 µM | 445 ± 27 | – | – | – | – | – |
| Cc1ccc(-c2ccc(=O)n(CC(=O)NCCc3ccccc3)n2)cc1 [compound 5] | – | – | – | – | optimal anesthetic activity | did not show any remarkable patterns of uptake, distribution, or elimination | 245 ± 65 s | < 20 s | −0.761 mmol/kg |
